Test results taken from patent US20100143332A1, “COMBINATION THERAPY FOR PROLIFERATIVE DISORDERS” (Schering Corporation, priority 2006, published 2010).

How the values were obtained:
[1] = test system: γ-H2A.X phosphorylation in U20S cells; test: γ-H2A.X phosphorylation by intracellular staining and FACS (marker of double-stranded DNA breaks); format: cell-based, Human
Procedure: (§1) Cell lines, drugs, and siRNA treatment materials and methods are as follow. Human U20S osteosarcoma cells are grown in DMEM (Mediatech, Herndon, Va.) supplemented with 10% FBS (JRH BioSciences, St. Louis, Mo.), 200 U/ml penicillin, 200 μg/ml streptomycin, and 300 μg/ml L-Glutamine (Cambrex). HU (Sigma, St. Louis, Mo.) is used at 1 mM for 15 hours.
(§2) Cells are transfected with 50 nM siRNA for Chk1, 100 nM siRNA for Luciferase (Luc), PolA, PolE, PolD1, and ATR duplexes using Lipofectamine 2000 (Invitrogen, Carlsbad, Calif.) according to the manufacturer's protocol.
Flow cytometric analysis, e.g. γ-H2AX detection for DNA damage and BrdU incorporation for cell cycle analysis, is performed as described previously (Cho et al. (2005) Cell Cycle 4:131) and analyzed with a BD LSR II (BD BioSciences, San Jose, Calif.) using FacsDIVA software.

[2] = test system: Chk1 S345 phosphorylation in U20S cells; test: Western blot of Chk1 S345 phosphorylation in cell extracts; format: cell-based, Human; conditions: for Chk1 S345 phosphorylation after antimetabolite treatment: 1 mM HU, 5 μM Gem or 5 μM Ara-C for 2 h, FIG. 1
Procedure: as §1, §2
(§3) Western blot analysis of siRNA knockdowns is performed as follows. Cell pellets are trypsinized, washed with PBS, and lysed in 2×SDS sample buffer (Invitrogen, Carlsbad, Calif.). Protein extracts are separated by SDS-polyacrylamide gel electrophoresis and transfer to Immobilon®-P membrane (Millipore, Billarica, Mass.). Antibodies used in this study are obtained from Santa Cruz Biotechnology, Inc. (Santa Cruz, Calif.) (Polα, Polε, Polδ, Rad17), Cell Signaling Technology, Inc. (Danvers, Mass.) (pS345-Chk1, pT68-Chk2), Stressgen Bioreagents Corp. (San Diego, Calif.) (Chk1), and Bethyl Laboratories, Inc. (Montgomery, Tex.) (pS33-RPA 32).
U20S cells were untreated (“-”) or treated with 1 mM HU, 5 μM Gem, or 5 μM Ara-C for 2 h. Cell extracts were prepared and immunoblotted with a phospho-Chk1 S345 antibody to show phosphorylated Chk1 (Chk1 S345) and Chk1 (loading control). […] Liu et al. (2000) Genes Dev. 14:1448; Zhao & Piwnica-Worms (2001) Mol. Cell. Biol. 21:4129; Capasso et al. (2002) J. Cell Sci. 115:4555.
At 48 h after siRNA transfections, extracts were prepared and immunoblotted with the indicated antibodies. HU-treated cells were treated with 1 mM HU for 7 h before harvest.

[3] = test system: RPA32 S33 phosphorylation in U20S cells; test: Western blot of RPA32 S33 phosphorylation in cell extracts; format: cell-based, Human; conditions: 1 mM HU 15 h, cells transfected with luciferase (control) siRNA, FIG. 10
Procedure: as §1, §2, §3
Cells were tested for Chk1 and RPA32 phosphorylation as a function of depletion of DNA polymerases alone and in combination with depletion of Chk1. […]

[4] = test system: Chk1 S345 in Polα complexes, U20S cells; test: Time course of Chk1 S345 accumulation in Polα immunoprecipitates; format: cell-based, Human; conditions: HU for 0.5, 1, 2 and 15 h; first time point tested; FIG. 9
Procedure: Immunoprecipitation is performed as follows. Cell pellets are lysed in LT250 buffer (50 mM Tris-HCl pH 7.4, 250 mM NaCl, 5 mM EDTA, 0.1% NP-40, 10% glycerol, 1 mM DTT, 1:100 dilution of phosphatase inhibitor set I and II, and protease inhibitor cocktail set 111 (Calbiochem, San Diego, Calif.). Protein concentrations are determined using the Bio-Rad Protein Assay (Bio-Rad, Hercules, Calif.). For immunoprecipitation, protein lysates (2 mg) are incubated with anti-Polα (SJK 132-20) antibody cross-linked to ImmunoPure Protein G beads for 4 hours at 4° C. Pab419 monoclonal Ab against SV40 T antigen is typically used as a negative control.
(§4) A time course of HU induction of Chk1 phosphorylation was performed. U20S cells were treated with HU for 0.5, 1, 2 and 15 h, and protein extracts were prepared for immunoprecipitation. Polα was immunoprecipitated with Polα antibodies (SJK132-20) cross-linked to protein G. Western blots were performed using anti-Polα, anti-Chk1, and anti-Chk1 S345 antibodies (FIG. 9). Chk1 phosphorylation was complete at even the earliest timepoint, and both Chk1 and Chk1 S345P co-immunoprecipitated with Polα.

[5] = target: T1, human DNA polymerase alpha (human, UniProt P09884 1-1462); test: immunoprecipitation with SJK132-20, HU time course, western blot
T1 construct: Endogenous protein in lysates of human U20S osteosarcoma cells; Other subunits of the polymerase alpha complex may have been present in the immune complexes; also called Polα; PolA gene product
T1 sequence: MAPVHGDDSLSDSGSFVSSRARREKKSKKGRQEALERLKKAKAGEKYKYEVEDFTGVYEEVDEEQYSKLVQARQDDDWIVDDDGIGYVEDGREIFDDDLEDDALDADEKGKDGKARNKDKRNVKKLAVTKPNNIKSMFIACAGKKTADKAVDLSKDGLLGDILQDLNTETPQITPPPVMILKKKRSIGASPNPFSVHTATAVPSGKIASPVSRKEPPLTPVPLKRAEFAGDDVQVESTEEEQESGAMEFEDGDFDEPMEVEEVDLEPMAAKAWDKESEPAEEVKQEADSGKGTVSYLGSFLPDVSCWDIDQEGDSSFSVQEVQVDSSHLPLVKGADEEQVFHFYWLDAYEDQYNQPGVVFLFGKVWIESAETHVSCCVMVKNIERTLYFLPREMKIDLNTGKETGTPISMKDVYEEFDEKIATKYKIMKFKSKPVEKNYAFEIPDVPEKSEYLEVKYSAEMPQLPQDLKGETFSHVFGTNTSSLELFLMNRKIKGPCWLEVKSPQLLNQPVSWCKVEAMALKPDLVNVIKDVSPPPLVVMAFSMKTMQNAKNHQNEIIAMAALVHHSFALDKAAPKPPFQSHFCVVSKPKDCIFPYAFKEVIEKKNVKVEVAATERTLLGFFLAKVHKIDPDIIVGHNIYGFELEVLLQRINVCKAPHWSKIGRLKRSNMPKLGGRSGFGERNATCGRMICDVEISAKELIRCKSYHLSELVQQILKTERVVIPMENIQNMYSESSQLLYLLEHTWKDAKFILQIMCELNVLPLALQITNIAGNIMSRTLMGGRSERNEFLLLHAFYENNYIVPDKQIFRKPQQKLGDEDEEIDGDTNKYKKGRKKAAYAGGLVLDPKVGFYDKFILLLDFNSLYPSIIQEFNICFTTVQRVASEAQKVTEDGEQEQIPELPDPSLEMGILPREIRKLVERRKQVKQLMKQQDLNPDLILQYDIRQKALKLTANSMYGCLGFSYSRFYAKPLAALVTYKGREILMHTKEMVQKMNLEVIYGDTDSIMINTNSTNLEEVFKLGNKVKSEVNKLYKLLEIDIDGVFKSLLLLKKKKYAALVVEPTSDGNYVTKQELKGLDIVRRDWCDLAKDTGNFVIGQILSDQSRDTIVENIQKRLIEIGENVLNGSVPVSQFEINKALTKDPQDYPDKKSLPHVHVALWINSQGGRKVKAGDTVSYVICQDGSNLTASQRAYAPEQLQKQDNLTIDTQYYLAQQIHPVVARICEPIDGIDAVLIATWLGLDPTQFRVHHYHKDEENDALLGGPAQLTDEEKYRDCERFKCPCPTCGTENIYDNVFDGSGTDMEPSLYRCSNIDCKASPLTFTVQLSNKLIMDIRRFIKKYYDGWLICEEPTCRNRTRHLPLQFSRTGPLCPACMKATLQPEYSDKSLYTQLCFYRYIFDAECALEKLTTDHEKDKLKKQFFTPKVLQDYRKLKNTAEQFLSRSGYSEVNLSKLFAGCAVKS
Procedure: as §4

Molecule: COc1ccc(CNC(=O)c2cccc(-c3cnc(N)c(C(=O)N[C@H]4CCCNC4)n3)c2)cc1 [3-amino-6-{3-[({[4-(methyloxy)phenyl]methyl}amino)carbonyl]phenyl}-N-[(3S)-piperidin-3-yl]pyrazine-2-carboxamide]
- percentage of cells exhibiting substantial double-stranded DNA breaks (γ-H2AX) ([1]; Chk1 inhibitor 2.5 μM, 2 hours, combined with siRNA ablation of PolA, controls less than 1%, FIG. 4B): over 50%

Molecule: Nc1ccn([C@@H]2O[C@H](CO)[C@@H](O)[C@@H]2O)c(=O)n1 [Ara-C, cytarabine]
- Chk1 S345 phosphorylation after antimetabolite treatment [2]: induced substantial phosphorylation of Chk1

Molecule: Nc1ccn([C@@H]2O[C@H](CO)[C@@H](O)C2(F)F)c(=O)n1 [Gem, gemcitabine]
- Chk1 S345 phosphorylation after antimetabolite treatment [2]: induced substantial phosphorylation of Chk1

Molecule: NC(=O)NO [HU, hydroxyurea]
- H2A.X phosphorylation compared to control samples ([1]; FIG. 4A, average of three experiments): modestly increase
- cells exhibiting DNA damage compared with control cultures ([1]; FIGS. 2B and 2C, siRNA 48 h, HU 1 mM with control siRNA): approximately 10 fold
- Chk1 S345 phosphorylation in whole cell extracts ([2]; 1 mM HU 15 h, cells transfected with luciferase (control) siRNA, FIG. 10): strong Chk1 S345 phosphorylation
- Chk1 S345 phosphorylation after antimetabolite treatment [2]: induced substantial phosphorylation of Chk1
- RPA32 phosphorylation in whole cell extracts [3]: low level RPA32 phosphorylation
- time at which Chk1 S345 response in Polα complexes was complete [4]: ≤ 0.5 h

B1: Chk1 S345P (Chk1 phosphorylated at S345) (enzyme)
chain: MAVPFVEDWDLVQTLGEGAYGEVQLAVNRVTEEAVAVKIVDMKRAVDCPENIKKEICINKMLNHENVVKFYGHRREGNIQYLFLEYCSGGELFDRIEPDIGMPEPDAQRFFHQLMAGVVYLHGIGITHRDIKPENLLLDERDNLKISDFGLATVFRYNNRERLLNKMCGTLPYVAPELLKRREFHAEPVDVWSCGIVLTAMLAGELPWDQPSDSCQEYSDWKEKKTYLNPWKKIDSAPLALLHKILVENPSARITIPDIKKDRWYNKPLKKGAKRPRVTSGGVSESPSGFSKHIQSNLDFSPVNSASSEENVKYSSSQPEPRTGLSLWDTSPSYIDKLVQGISFSQPTCPDHMLLNSQLLGTPGSSQNPWQRLVKRMTRFFTKLDADKSYQCLKETCEKLGYQWKKSCMNQVTISTTDRRNNKLIFKVNLLEMDDKILVDFRLSKGDGLEFKRHFLKIKGKLIDIVSSQKVWLPAT
modifications: phosphoserine at 345 (Chk1 S345P)
notes: also called phospho-S345 Chk1; Chk S345P
- binding result [5]: binds
